Patent publication US9085536B2, “Aconitine compounds, compositions, uses, and preparation thereof” (priority 2011, dated 2015)
Like-named read-outs stand apart in the source and are kept apart here.

Key:
[1] = target: T1, rNaV1.4 expressed in CHO cells (Rattus norvegicus, UniProt P15390); assay: Na+ current block at steady state, whole-cell patch clamp with pulse trains; format: cell-based; settings: for depolarizing pulses required to reach steady-state block: 10 Hz pulse trains
T1 construct: expressed in transfected cells; host or cells: CHO cells
Protocol: Binding of aconitine to NaV is use-dependent and is known to result both in a left shift of the current-voltage (I-V) relationship and in partial block of the channel. […] To determine whether aconitine binding is reversible, two experiments were designed. First, as block by aconitine is known to be use dependent, peak current was measured as a function of pulse number in the presence of two different concentrations of aconitine. Since aconitine binds preferentially to the open state of the sodium channel, a pulse train was applied sequentially with a control pulse used to record peak current. The pulse train consisted of a series of 50 depolarizing pulses (from −100 mV holding potential to 0 mV, 10 ms duration) applied at 10 Hz frequency, while the control pulse consisted of a single depolarizing pulse (from −100 mV holding potential to 0 mV test potential, 10 ms duration).
Pulse trains of 10 Hz frequency and control pulses were applied sequentially to cells expressing rNaV1.4, and currents elicited from the control pulse were recorded after each pulse train. This process was repeated until the current elicited from the control pulse had reached a steady state and was no longer decreasing with each additional pulse train. If block were irreversible, this steady state current would be expected to be independent of toxin concentration—the toxin would not be able to dissociate from its receptor, and the number of toxin molecules is much greater than the number of sodium channels (assuming a 100 μL chamber containing 1000 CHO cells, each expressing 10,000 sodium channels, at 50 μM concentration toxin molecules outnumber receptors by a factor of 3×10^8:1), therefore, all receptors would eventually reach the bound state.
Block by aconitine is known to be use-dependent, therefore the use-dependence of the C14 derivatives of aconitine was evaluated. Peak Na current was measured as a function of pulse number in the presence of different concentrations of the molecules. […] Since aconitine binds preferentially to the open state of the sodium channel, a pulse train was applied sequentially with a control pulse used to record peak current. The pulse train consisted of a series of 50 depolarizing pulses (from −100 mV holding potential to 0 mV, 10 ms duration) applied at 10 Hz frequency, while the control pulse consisted of a single depolarizing pulse (from −100 mV holding potential to 0 mV test potential, 10 ms duration).
Pulse trains of 10 Hz frequency and control pulses were applied sequentially to CHO cells expressing rNaV1.4, and currents elicited from the control pulse were recorded after each pulse train. This process was repeated until the current elicited from the control pulse had reached a steady state and was no longer decreasing with each additional pulse train. If block were irreversible, this steady state current would be expected to be independent of toxin concentration—the toxin would not be able to dissociate from its receptor, and the number of toxin molecules is much greater than the number of sodium channels, therefore, all receptors would eventually reach the bound state.
The ability of the synthesized aconitine derivatives to block NaV channels was evaluated with patch-clamp experiments in the whole-cell configuration on CHO cells expressing rNaV1.4 heterologously. A buffer solution containing the toxin was applied to the cells, whole-cell Na^+ currents were recorded until the decreasing current reached a steady-state (300 to 3000 pulses, depending on the molecules and concentrations). The peak Na^+ currents were measured with a depolarizing test pulse (from −100 mV holding potential to 0 mV test potential, 10 ms duration).

[2] = target: T1, rNaV1.4 expressed in CHO cells; format: cell-based
Protocol: […] […] It is noteworthy that little or no increase in current was observed during wash off when no depolarizing pulses were applied and peak current was measured as a function of time.
Since the molecules bind to the open-state of the Nav channel their release also requires activation pulses. In typical experiments, buffered external solution was perfused and a pulse train sequence was applied to the patch-clamp until the current reached a steady-state for at least two minutes.

[3] = target: T1, rNaV1.4 expressed in CHO cells; assay: Activation: current-voltage (I-V) and conductance-voltage (G-V) relationship, whole-cell recording; format: cell-based; settings: 50 μM
Protocol: To determine if the shift in I-V relationship is affected by the aromaticity of the aconitine C14 benzoate, current-voltage relationships were recorded for control cells expressing NaV, those that had been modified by aconitine, and those that had been modified by aconitine C14-cyclohexanoate 4.8d. For the modified channels, solutions of 50 μM concentration of the respective toxins were perfused onto the cells, and then depolarizing pulses were applied until a steady state current was observed, generally requiring about 1000 pulses. At that time, current-voltage relationships were again recorded. […] A shift towards hyperpolarizing potentials is clearly observed in both cases. Currents recorded at −50 mV are highlighted for all three experiments.
To determine the effect on current-voltage (I-V) relationship of the aconitine derivatives, whole cell currents were recorded in cells expressing NaV in the presence of aconitine derivatives. Control I-V plots were recorded with unmodified NaV1.4, to which were compared NaV channels modified by aconitine as well as by selected analogs. For the modified channels, solutions of the respective toxins were perfused onto the cells, and then depolarizing pulses were applied until a steady state current was observed, generally requiring about 1000 pulses. A sequence of test pulses was then recorded to determine the current-voltage relationships (using a step protocol in which CHO cells were depolarized for 10 ms from a holding potential of −100 mV to a range of potentials from −95 mV to +30 mV in 5 or 10 mV increments; peak currents were normalized to the maximum peak current and plotted against voltage).

[4] = target: T1, rNaV1.4 expressed in CHO cells; assay: Steady-state inactivation, whole-cell recording, Boltzmann fit; format: cell-based
Protocol: . The channels were modified by perfusing the cells with buffered solution containing aconitine at the given concentrations and then simple pulses (10 ms pulses to 0 mV from −100 mV holding potential) were recorded until the currents leveled to a steady value (typically ˜1000 pulses). Steady-state fast inactivation of the current was then determined by delivering 500 ms conditioning pulses to potentials ranging from −130 to −11 mV (7 my increments) immediately followed by a 10 ms test pulse to 0 mV to test the available current. The peak current measured during the test pulse was normalized to the maximum peak current recorded in the conditioning pulses. […] Midpoint voltage V0.5 represents the membrane potential at which half maximum current is observed; slope factor at midpoint k quantifies the rate at which the inactivation response occurs.

[5] = total dose; cited from earlier work

T1 sequence (P15390 whole entry): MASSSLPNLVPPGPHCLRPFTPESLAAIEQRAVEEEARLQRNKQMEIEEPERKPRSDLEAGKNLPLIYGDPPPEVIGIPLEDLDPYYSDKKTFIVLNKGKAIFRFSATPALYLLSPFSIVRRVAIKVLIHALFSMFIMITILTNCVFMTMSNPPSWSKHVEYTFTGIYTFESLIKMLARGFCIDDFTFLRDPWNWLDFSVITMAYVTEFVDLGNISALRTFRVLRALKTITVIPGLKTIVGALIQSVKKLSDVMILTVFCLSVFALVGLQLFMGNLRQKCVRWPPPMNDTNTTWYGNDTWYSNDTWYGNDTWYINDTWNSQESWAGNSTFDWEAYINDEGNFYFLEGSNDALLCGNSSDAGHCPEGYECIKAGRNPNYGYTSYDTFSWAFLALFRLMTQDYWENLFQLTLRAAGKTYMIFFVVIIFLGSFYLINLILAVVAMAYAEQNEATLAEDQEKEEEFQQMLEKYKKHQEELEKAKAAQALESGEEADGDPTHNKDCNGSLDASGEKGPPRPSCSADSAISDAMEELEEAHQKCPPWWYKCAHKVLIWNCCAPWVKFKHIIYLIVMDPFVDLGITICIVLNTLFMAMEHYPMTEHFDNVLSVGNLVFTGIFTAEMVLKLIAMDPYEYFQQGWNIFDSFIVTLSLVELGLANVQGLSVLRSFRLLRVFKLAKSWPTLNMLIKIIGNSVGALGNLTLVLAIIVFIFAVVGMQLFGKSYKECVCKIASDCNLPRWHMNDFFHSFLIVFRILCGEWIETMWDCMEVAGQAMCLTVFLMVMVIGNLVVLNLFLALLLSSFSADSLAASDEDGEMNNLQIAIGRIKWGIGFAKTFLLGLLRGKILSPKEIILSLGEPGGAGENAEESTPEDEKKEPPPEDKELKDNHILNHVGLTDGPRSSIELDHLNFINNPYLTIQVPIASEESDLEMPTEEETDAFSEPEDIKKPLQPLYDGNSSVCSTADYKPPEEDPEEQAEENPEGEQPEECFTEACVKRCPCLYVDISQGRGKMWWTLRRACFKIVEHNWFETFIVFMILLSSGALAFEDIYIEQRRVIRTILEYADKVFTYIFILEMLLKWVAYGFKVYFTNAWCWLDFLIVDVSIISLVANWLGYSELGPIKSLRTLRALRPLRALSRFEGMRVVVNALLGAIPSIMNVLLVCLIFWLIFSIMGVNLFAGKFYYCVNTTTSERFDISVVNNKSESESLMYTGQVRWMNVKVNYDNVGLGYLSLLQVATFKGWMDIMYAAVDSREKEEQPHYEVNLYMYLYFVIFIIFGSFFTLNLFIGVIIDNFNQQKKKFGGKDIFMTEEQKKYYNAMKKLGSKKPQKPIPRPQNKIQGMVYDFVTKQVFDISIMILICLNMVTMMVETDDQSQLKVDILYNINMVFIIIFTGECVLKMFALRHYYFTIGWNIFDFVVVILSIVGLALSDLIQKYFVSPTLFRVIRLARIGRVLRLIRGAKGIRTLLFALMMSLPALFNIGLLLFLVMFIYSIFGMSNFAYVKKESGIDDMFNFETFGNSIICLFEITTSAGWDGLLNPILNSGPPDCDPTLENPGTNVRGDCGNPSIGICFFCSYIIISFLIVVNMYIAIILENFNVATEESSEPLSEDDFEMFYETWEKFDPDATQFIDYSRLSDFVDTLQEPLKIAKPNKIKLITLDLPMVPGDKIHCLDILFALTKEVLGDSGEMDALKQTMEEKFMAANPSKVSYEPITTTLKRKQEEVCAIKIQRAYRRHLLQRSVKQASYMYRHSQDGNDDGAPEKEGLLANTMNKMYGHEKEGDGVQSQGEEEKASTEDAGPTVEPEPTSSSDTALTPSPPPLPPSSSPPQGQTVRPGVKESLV

For `CCN1CC2(COC)C3C(OC)C4C1C3(C1C[C@@]3(O)[C@H](OC(=O)c5ccccc5)[C@@H]1[C@]4(OC(C)=O)[C@@H](O)[C@@H]3OC)[C@@H](OC)C[C@H]2O` (some centres unmarked) [Aconitine, aconitine], which “peak current blocked at steady state” value [1] is on record?
The value was 40%.

And the “% Remaining current after reaching steady-state binding” value (shortened to “% Remaining current”) ([1]; 5 μM)?
The value was 40%.

And the “% Remaining current” value ([1]; 20 μM)?
The value was 19%.

And the “peak current blocked at steady state” value ([1]; 20 μM)?
The value was 81%.

What about the “Current measured at 20 μM (%)” value ([1]; 20 μM, before wash-off) of the same molecule?
The value was 19%.

And the “depolarizing pulses required to reach steady-state block” value (from here on “depolarizing pulses required”) ([1]; 20 μM)?
The value was “around 600 pulses”.

What about the “% Remaining current” value ([1]; 50 μM) of the same molecule?
The value was 13%.

And the “peak current blocked at steady state” value ([1]; 50 μM)?
Its value is 83%.

And the “depolarizing pulses required” value ([1]; 50 μM)?
The value was “approximately 800 pulses”.

And the “% Remaining current” value ([1]; 50 μM, listed as aconitine)?
Its value is 15%.

And the “% Remaining current” value ([1]; 75 μM)?
The value was 13%.

What about the “peak current blocked at steady state” value ([1]; 75 μM) of the same molecule?
The value was 87%.

And the “Current measured at 75 μM (%)” value ([1]; 75 μM, before wash-off)?
Its value is 13%.

And the “depolarizing pulses required” value ([1]; 75 μM)?
Its value is 800 pulses.

And the “% Remaining current” value ([1]; 200 μM)?
Its value is 5%.

And the “peak current blocked at steady state” value ([1]; 200 μM)?
Its value is “approximately 94%”.

What about the “depolarizing pulses required” value ([1]; 200 μM) of the same molecule?
The value was 300 pulses.

What about the “depolarizing pulses required” value ([1]; 5 (unit not printed)) of the same molecule?
Its value is “over 2500 pulses”.

And the “current restoration during wash off” value ([2]; after 200 μM and 1000 depolarizing pulses, toxin-free buffer with pulses)?
The value was “significant current restoration”.

What about the “Current after wash-off (%)” value ([2]; after wash-off of 20 μM) of the same molecule?
Its value is 94%.

What about the “Current after wash-off (%)” value ([2]; after wash-off of 75 μM) of the same molecule?
Its value is 62%.

And the “Activation V0.5 (mV)” value [3]?
The value was −40.3 mV.

And the Activation hg [3]?
Its Activation hg is 10.4.

And the “membrane potential at which maximum inward Na current occurs” value [3]?
The value was “around −10 mV”.

And the “current at −50 mV” value ([3]; after about 1000 pulses, no current in control cells)?
The value was “substantial currents”.

What about the “Steady-state inactivation V0.5 (mV)” value ([4]; 5 μM) of the same molecule?
Its value is −65.1 mV.

And the “Steady-state inactivation k (slope factor at midpoint)” value ([4]; 5 μM)?
The value was 6.50.

What about the “Steady-state inactivation V0.5 (mV)” value ([4]; 50 μM) of the same molecule?
Its value is −65 mV.

And the “Steady-state inactivation k (slope factor at midpoint)” value ([4]; 50 μM)?
The value was 5.97.

And the “Steady-state inactivation V0.5 (mV)” value ([4]; 200 μM)?
Its value is −82.4 mV.

And the “Steady-state inactivation k (slope factor at midpoint)” value ([4]; 200 μM)?
The value was 21.0.

And the “lethal doses in humans, estimated” value [5]?
Its value is 1 to 5 mg.
